The nature of series [1]: Solid form characterisation of 5MeODMT benzoate lots (XRPD, DSC, TGA, 1H NMR).
For a further series, the system named is ovine nasal epithelium. Nature of the series: Permeation through ovine nasal epithelium. It counts as in vitro ADME. As to conditions: for Cumulative amount (μg/cm^2): […] dosing solution in water, mean, n=5; for Permeation compared with the hydrochloride salt: across ovine nasal epithelium. The text has this:
The use of ovine nasal epithelium to study nasal drug absorption is a technique which is well known to the person skilled in the art.

Series [2] concerns Slugs (Arion lusitanicus). It counts as in vivo. As to conditions: Example 8; for Total MP (% body weight): Concentration (w/v) 10%. An excerpt: The Slug Mucosal Irritation (SMI) assay was initially developed at the Laboratory of Pharmaceutical Technology (UGent) to predict the mucosal irritation potency of pharmaceutical formulations and ingredients. The test utilizes the terrestrial slug Arion lusitanicus. The body wall of the slugs is a mucosal surface composed of different layers.
The outer single-layered columnar epithelium that contains cells with cilia, cells with micro-villi and mucus secreting cells covers the subepithelial connective tissue. Slugs that are placed on an irritating substance will produce mucus. Additionally tissue damage can be induced which results in the release of proteins and enzymes from the mucosal surface. […] A classification prediction model that distinguishes between irritation (mucus production) and tissue damage (release of proteins and enzymes) has been developed. […] A 5% shampoo dilution or artificial tears were instilled in the eye and the discomfort was scored by the participants on a 5 point scale during several time points up to 30 min after instillation. The same shampoos were tested in the SMI assay using the Stinging, Itching and Burning (SIB) protocol.
The purpose of this assay was to assess the stinging, itching or burning potential of the test item(s) defined below. Using the objective values obtained for the mucus production the stinging, itching or burning potential of the test item(s) can be estimated by means of the prediction model that is composed of four categories (no, mild, moderate and severe).
Test System: Slugs (Arion lusitanicus); 3 slugs per treatment group. The parental slugs of Arion lusitanicus collected in local gardens along Gent and Aalter (Belgium) are bred in the laboratory in an acclimatized room (18-20° C.). The slugs are housed in plastic containers and fed with lettuce, cucumber, carrots and commercial dog food.
Test Design: A single study was performed.
Slugs weighing between 3 and 6 g were isolated from the cultures two days before the start of an experiment. The body wall was inspected carefully for evidence of macroscopic injuries. […] The slugs were placed in a plastic box lined with paper towel moistened with PBS and were kept at 18-20° C. Daily the body wall of the slugs was wetted with 300 μl PBS using a micropipette.
An overview of this can be seen in FIG. 4.
The mucus production was expressed as % of the body weight.
Based on the endpoint of the SMI assay the stinging, itching or burning potency of the test item(s) was estimated using a classification prediction model.
The evaluation of the test results was based upon the total amount of mucus production during 3 repeated contact periods with the test item.
For each slug, the mucus production was expressed in % of the body weight by dividing the weight of the mucus produced during each contact period by the body weight of the slug before the start of that contact period. The total mucus was calculated for each slug and then the mean per treatment group was calculated. The classification prediction model shown in Table 1 was used to classify the compounds.

Series [3] is described as follows: Dynamic Vapour Sorption (DVS). It counts as physicochemical. The protocol: A modified DVS isotherm of lot 20/45/006-FP (the same crystalline version) was undertaken to examine material behaviour from 60% RH and above. […] This is to obtain in-depth profiling of the material towards humidity at these elevated levels.
Temperature and humidity are important factors in the processing and storage of pharmaceuticals. DVS provides a versatile and sensitive technique for evaluating the stability of pharmaceutical formulations.
The solution was clarified into a 500 ml round bottom flask, the round bottom flask was rotated in an acetone/dry ice bath to freeze the solution in a thin layer around the flask. The ice was sublimed in vacuo at ambient temperature affording a fluffy white solid. The solid was removed from the round bottom flask and transferred to the DVS instrument. During this transfer, the solid collapsed to a sticky gum.
The sample was examined by DVS from 40% RH and cycled between 0% RH and 90% RH twice.
XRPD was collected on a portion of the sample post-lyophoilisation and post-DVS examination.

Series [4] can be described thus: Controlled cooling crystallisation: solubility in minimal solvent at 50 °C. It counts as physicochemical. Conditions: 50° C. On the procedure:
(detailed in the Table below). The solutions were clarified through a 0.45 μm Teflon syringe filter into pre-heated crystallisation tubes and cooled from 50° C. to −10° C. over 60 hours (1° C. Hr-1 cooling rate) and held at −10° C. for 50 hours (no agitation).
Solutions were clarified into crystallisation tubes at 50° C. and were cooled to −10° C. at a rate of 10° C.·hr-1, then equilibrated at −10° C. for 12 hours, then agitated at −10° C. at 400 rpm for 30 minutes which afforded a mobile suspension for all samples except Sample I which remained a solution. Further equilibration with agitation at −10° C. at 400 rpm for 3 hours afforded a thin suspension. All samples were isolated via isolute cartridge and air dried for 5 minutes before characterisation.

Series [5] can be described thus: Stability of solid forms (Patterns A, B, C) open to atmosphere and in vacuo at 50 °C, by XRPD. It counts as physicochemical. On the procedure:
XRPD was performed regularly. DSC and 1H NMR spectroscopy were performed on samples where significant differences to the diffraction patterns were observed.

With `COc1ccc2[nH]cc(CCN(C)C)c2c1.O=C(O)c1ccccc1` [5MeODMT benzoate 21-01-064 E], in series [1] (predominantly Pattern D lots), the Crystalline character result was “Pattern D”.

For `COc1ccc2[nH]cc(CCN(C)C)c2c1.O=C(O)c1ccccc1` [5MeODMT benzoate 21-01-064 A], the Crystalline character entry in series [1] (predominantly Pattern C lots) is “Pattern C”.

`COc1ccc2[nH]cc(CCN(C)C)c2c1.O=C(O)c1ccccc1` [5MeODMT benzoate 21-01-064 D]: the Crystalline character entry in series [1] (predominantly Pattern E lots) is reported as “Pattern E”.

Consider `COc1ccc2[nH]cc(CCN(C)C)c2c1.Cl` [5MeODMT HCl, 5MeODMT hydrochloride], for which the “Cumulative amount (μg/cm^2)” value in the series on ovine nasal epithelium (Time 0.0 min) is 0.00 μg/cm^2; with ovine nasal epithelium (Time 10.0 min), 0.33 μg/cm^2; with ovine nasal epithelium (Time 20.0 min), 3.30 μg/cm^2; in the series on ovine nasal epithelium (Time 30.0 min), 8.26 μg/cm^2; with ovine nasal epithelium (Time 40.0 min), 13.33 μg/cm^2; in the series on ovine nasal epithelium (Time 50.0 min), 18.77 μg/cm^2. Moreover, the “Cumulative amount (μg/cm^2)” value in the series on ovine nasal epithelium (Time 60.0 min) is given as 23.43 μg/cm^2; with ovine nasal epithelium (Time 75.0 min), 29.52 μg/cm^2. Besides, the “Irritation score on SMI testing” value in series [2] is “moderate”. For the same molecule, the “Total MP (% body weight)” value in series [2] is 10.27 % body weight. For the same molecule, the “State of material upon completion of the DVS cycle” value in series [3] (lot 20/20/126-FP) is listed as “completed deliquesced”. Also, the Moisture uptake entry in series [3] (lot 20/20/126-FP, 0-70% RH) is recorded as “less than 0.3 % w/w”; in series [3] (lot 20/20/126-FP, 70-80% RH, first sorption cycle), “Approximately 23 % w/w”; in series [3] (lot 20/45/006-FP, 75-80% RH), “ca. 7%”; in series [3] (lot 20/45/006-FP, 80-85% RH), “ca. 40%”. Besides, the “Retained mass above the minimum mass recorded at 0% RH” value in series [3] (lot 20/20/126-FP, subsequent cycles) is 6-9 % w/w. Also, in series [3] (lot 20/20/126-FP, up to and when held at 90% RH), the Further moisture uptake is on record as 20 % w/w. Besides, the Moisture increase entry in series [3] (lot 20/45/006-FP, 70-75% RH) was “ca. 0.46 % w/w”. Besides, the “State of material post DVS analysis” value in series [3] (lot 20/45/006-FP, likely above 80% RH) is “Complete deliquescence”.

With `COc1ccc2[nH]cc(CCN(C)C)c2c1.O=C(O)c1ccccc1` [5MeODMT benzoate], the “Cumulative amount (μg/cm^2)” value in the series with ovine nasal epithelium (Time 0.0 min) was found to be 0.00 μg/cm^2; in the series on ovine nasal epithelium (Time 10.0 min) it was 0.20 μg/cm^2; in the series with ovine nasal epithelium (Time 20.0 min), 3.46 μg/cm^2; in the series with ovine nasal epithelium (Time 30.0 min), 9.30 μg/cm^2; with ovine nasal epithelium (Time 40.0 min), 15.46 μg/cm^2; with ovine nasal epithelium (Time 50.0 min), 21.51 μg/cm^2. Further, the “Cumulative amount (μg/cm^2)” value worked out at 27.30 μg/cm^2 with ovine nasal epithelium (Time 60.0 min), 33.34 μg/cm^2 in the series on ovine nasal epithelium (Time 75.0 min) and 39.77 μg/cm^2 in the series with ovine nasal epithelium (Time 90.0 min). The “Permeation compared with the hydrochloride salt” value in the series on ovine nasal epithelium (listed as 5MeODMT benzoate salt) is reported as “higher permeation”; with ovine nasal epithelium (listed as benzoate salt), “higher permeation across the epithelium”; in the series on ovine nasal epithelium (listed as benzoate salt of 5MeODMT) it was “higher permeation”. Also, the “Irritation score on SMI testing” value in series [2] was “mild”. Also, the “Total MP (% body weight)” value in series [2] is on record as 7.38 % body weight. The “Solubility (mg · mL^1)” value in series [4] (2-MeTHF) is recorded as 31.25 mg · mL^1; in series [4] (3-methyl-1-butanol) it was 31.25 mg · mL^1; in series [4] (Acetone), 62.5 mg · mL^1; in series [4] (Chlorobenzene), 12.5 mg · mL^1; in series [4] (IPA) it was 42 mg · mL^1; in series [4] (MEK), 62.5 mg · mL^1. Further, the “Solubility (mg · mL^1)” value in series [4] (MeCN) amounted to 50 mg · mL^1; in series [4] (MeOH), 250 mg · mL^1; in series [4] (MeOH:TBME (1:1)), 125 mg · mL^1; in series [4] (Nitromethane), 125 mg · mL^1; in series [4] (THF) it was 83 mg · mL^1; in series [4] (iPrOAc), 12.5 mg · mL^1. In addition, the “Form/version modification on exposure to variable humidity” value in series [3] is recorded as “no evidence of form/version modification”. The “Stability by DVS profile compared with the hydrochloride salt” value in series [3] was “significantly higher”. The Maximum water uptake/loss in series [3] (from 0 to 90% humidity) is approximately 0.20%.

For `COc1ccc2[nH]cc(CCN(C)C)c2c1.O=C(O)c1ccccc1` [21-01-071 C1, Pattern C], the “XRPD pattern throughout drying, Day 2” value in series [5] (In vacuo at 50° C., Day 2) is reported as “B + A”. For the same molecule, the “XRPD pattern throughout drying, Day 3” value in series [5] (In vacuo at 50° C., Day 3) is on record as “A + B”. For the same molecule, the “XRPD pattern throughout drying, Day 1” value in series [5] (Open to atmosphere at 20 ± 2° C., Day 1) is listed as “C + B”. For the same molecule, the “XRPD pattern throughout drying, Day 4” value in series [5] (Open to atmosphere at 20 ± 2° C., Day 4) is on record as “C + B”. Also, in series [5] (Open to atmosphere at 20 ± 2° C., Day 6), the “XRPD pattern throughout drying, Day 6” value is given as “C + B”. Also, in series [5] (Open to atmosphere at 20 ± 2° C., Day 8), the “XRPD pattern throughout drying, Day 8” value is recorded as “C + B”. For the same molecule, in series [5] (Open to atmosphere at 20 ± 2° C., Day 12), the “XRPD pattern throughout drying, Day 12” value is reported as “C + B”.

Turning to `COc1ccc2[nH]cc(CCN(C)C)c2c1.O=C(O)c1ccccc1` [5MeODMT benzoate 21-01-064 E (air dried 4 hours)], the Crystalline character result in series [1] (predominantly Pattern D lots) is given as “Pattern D”.

As to `COc1ccc2[nH]cc(CCN(C)C)c2c1.O=C(O)c1ccccc1`, the Crystalline character result in series [1] (predominantly Pattern E lots) is “Pattern E”.

In the case of `COc1ccc2[nH]cc(CCN(C)C)c2c1.O=C(O)c1ccccc1` [Pattern B form], the Solid form stability entry in series [5] (open to atmosphere at ca. 20° C., up to 12 days) was “stable”.

As to `COc1ccc2[nH]cc(CCN(C)C)c2c1.O=C(O)c1ccccc1` [5MeODMT benzoate 21-01-064 C], in series [1] (predominantly Pattern E lots), the Crystalline character result is “Pattern E”.

Take `COc1ccc2[nH]cc(CCN(C)C)c2c1.O=C(O)c1ccccc1` [5MeODMT benzoate 21-01-064 F]: in series [1] (predominantly Pattern D lots), the Crystalline character result is given as “Pattern D”.

As for `COc1ccc2[nH]cc(CCN(C)C)c2c1.O=C(O)c1ccccc1` [5MeODMT benzoate 21-01-064 B], the Crystalline character entry in series [1] (predominantly Pattern C lots) was “Pattern C”.

For the origin of these results see patent US11518742B2 (priority 2020, dated 2022).
